For experiment [1], the system named is OCILy10 tumor cells. Briefly: OCILy10 subcutaneous tumor model, efficacy study. The class given is in vivo, C.B.-17 SCID female mice. The conditions noted are these: OCILy10 s.c. in C.B.-17 SCID mice; acalabrutinib 12.5 mg/kg po bid; AZD5991 IV once weekly. The protocol: 5×10^6 OCILy10 tumor cells were injected subcutaneously in the right flank of C.B.-17 SCID female mice in a volume of 0.1 mL containing 50% matrigel. Tumor volumes (measured by caliper), animal body weight, and tumor condition were recorded twice weekly for the duration of the studies. The tumor volume was calculated using the formula: length (mm)×width (mm)^2×0.52. For efficacy studies, growth inhibition from the start of treatment was assessed by comparison of the differences in tumor volume between control and treated groups. Dosing began when mean tumor size reached approximately 150-180 mm^3. CR=complete response. AZD5991 was formulated in 30% HPBCD (hydroxypropyl beta-cyclodextrin) in water for injection and adjusted to pH 9.0 up to a concentration of 30 mg/mL. AZD5991 was dosed IV once weekly. Acalabrutinib was formulated in 0.5% hydroxypropyl methyl cellulose/0.2% Tween 80, and dosed twice a day (bid) on an 8/16 hr split as an oral (po) administration at a volume of 10 mL/kg at a dose of 12.5 mg/kg.

For experiment [2], the system named is cleaved caspase-3. Briefly: Western blot time course of cleaved caspase-3 in OCILy10 and TMD8. Type of experiment: cell-based. The note with it: 1 μM AZD5991 for 8 hr, alone or after 24-hour pre-treatment with 100 nM acalabrutinib. Here is the method:
Two BTK inhibitor-sensitive ABC-DLBCL cell lines (OCILy10 and TMD8) were treated for an 8-hour time course with either 1 μM AZD5991 alone or following a 24-hour pre-treatment with 100 nM acalabrutinib (since exposure for 24 hours was sufficient to induce maximal BH3-only protein levels). Cells were harvested for protein lysates at varying time points (0, 0.5, 1, 2, 4, and 8 hours) post-AZD5991 treatment, normalized for protein concentration using the BCA Protein Assay Kit, and run for western blots according to standard protocols. To ensure expected target engagement of acalabrutinib, the blots were probed for the proximal biomarker for activated BTK (pBTK Y223). To gauge the time to induction of apoptosis, cleaved caspase-3 was also assessed. A loading control (vinculin) was also utilized for normalization.

In experiment [3] the test system is Karpas422. The experiment in a line: CellTiter-Glo viability, 72 hours. The class given is cell-based. The conditions noted are these: Homo sapiens, KARPAS-422, Karpas422, GCB-DLBCL. The protocol:
(§1) Two ABC-DLBCL (OCILy10 and TMD8) cell lines and one GCB-DLBCL (Karpas422) cell line were treated with either vehicle (DMSO) or a 10-point, ½ log serially dilution of acalabrutinib for 72 hours with a CellTiter-Glo viability readout.
On the technique in general: Cellular ATP, detected with luciferase, serves as a proxy for viable cell number.

The test system of experiment [4] is TMD8. Briefly: CellTiter-Glo viability, 72 hours. The class given is cell-based. The note with it: Homo sapiens, TMD8, ABC-DLBCL. The protocol: as §1
Experiment [5] deals with OCILy10. The experiment in a line: CellTiter-Glo viability, 72 hours. The note with it: Homo sapiens, OCI-Ly10, OCILy10, ABC-DLBCL. Type of experiment: cell-based. The protocol: as §1
Experiment [6] has as its system Bim and Bmf. The experiment in a line: Western blot of BH3-only protein levels in DLBCL cell lines. Type of experiment: cell-based. The conditions noted are these: 100 nM for 24 hours; OCILy10 and TMD8 relative to the insensitive cell line Karpas422. Here is the method: OCILy10, TMD8, and Karpas422 were treated with either vehicle or 100 nM acalabrutinib for 2-72 hours. Protein lysates were harvested at multiple time points in that interval, protein concentration was determined using the BCA Protein Assay Kit, and western blots were performed according to standard protocol to assess the effects on Bcl2 family protein levels. Each sample was normalized to vinculin as a loading control, and then protein levels of acalabrutinib-treated samples were calculated relative to those of vehicle-treated samples.
Each of the three cell lines were then treated with 100 nM acalabrutinib for 24 hours, and BH3-only protein levels were assessed. The levels of pro-apoptotic BH3-only proteins Bim and Bmf were increased in the two acalabrutinib-sensitive DLBCL cell lines relative to the insensitive cell line, priming the cells for apoptosis (FIG. 1). Acalabrutinib increases protein levels of pro-apoptotic proteins, including Bim and Bmf, in BTK inhibitor-sensitive DLBCL cell lines that leads to priming of cells for apoptosis. The results of Example 1 illustrate that diffuse large B-cell […] (DLBCL) cell lines display a differential sensitivity to acalabrutinib.
For orientation: In western blotting, separated proteins are transferred to a membrane and probed.

The GI50 is the concentration that inhibits growth by half. The low end stands for greater sensitivity of the cells, the high end for lower sensitivity of the cells.

SMILES strings stand for the structures.

As to `Cc1c2c(nn1C)CSCc1cc(n(C)n1)CSc1cc(c3ccccc3c1)OCCCc1c(C(=O)O)n(C)c3c-2c(Cl)ccc13` (atropisomer, axis not shown; (Ra)) [AZD5991, (Ra)-17-chloro-5,13,14,22-tetramethyl-28-oxa-2,9-dithia-5,6,12,13,22-pentaazaheptacyclo[27.7.1.1^4,7.0^11,15.0^16,21.0^20,24.0^30,35]octatriaconta-1(37),4(38),6,11,14,16,18,20,23,29,31,33,35-tridecaene-23-carboxylic acid], in experiment [1], the tumor growth inhibition is recorded as 44%. In addition, in experiment [2], the “induction of cleaved caspase” value is “no positive caspase activation”.

As for `CC#CC(=O)N1CCC[C@H]1c1nc(-c2ccc(C(=O)Nc3ccccn3)cc2)c2c(N)nccn12` [acalabrutinib, (S)-4-(8-amino-3-(1-but-2-ynoylpyrrolidin-2-yl)imidazo[1,5-a]pyrazin-1-yl)-N-(pyridin-2-yl)benzamide], the results for the 50% growth inhibitory concentration (GI50) in experiment [3], in experiment [4] and in experiment [5] were over 31000 nM, 60 nM and 10 nM, respectively. For the same molecule, in experiment [6], the “levels of pro-apoptotic BH3-only proteins Bim and Bmf” value is listed as “increased”. This molecule also returned a tumor growth inhibition in experiment [1] of 79%.

Values taken from patent US20210030718A1, “COMBINATIONS FOR TREATING CANCER” (ASTRAZENECA AB, priority 2018, published 2021).
